Data taken from publication PMC3922157 (Journal of Antimicrobial Chemotherapy, 2013).
Like-named read-outs stand apart in the source and are kept apart here.

Legend:
[1] = tested on: bloodstream-form T. b. brucei; assay: Alamar blue drug susceptibility assay, bloodstream-form trypanosomes; type: cell-based; conditions: for Increase in susceptibility on expression of TbAT1: TbAT1 expressed in B48 (Figure S6); for EC50: Trypanosoma brucei
Experimental: (§1) Drug susceptibilities of the bloodstream-form trypanosomes[47] and L. mexicana promastigotes[48] were determined using the Alamar blue assay exactly as described previously, measuring fluorescence in 96-well plates with a FLUOstar Optima (BMG Labtech, Durham, NC, USA) at wavelengths of 544 nm for excitation and 620 nm for emission. EC50 values were calculated by non-linear regression using an equation for a sigmoidal dose–response curve with variable slope (GraphPad Prism 5.0; GraphPad Software Inc., San Diego, CA, USA).

[2] = tested on: procyclic T. b. gambiense 386MR; type: cell-based
[3] = tested on: procyclic T. b. brucei 247MR; type: cell-based
[4] = tested on: Leishmania mexicana promastigotes; assay: Alamar blue drug susceptibility assay, L. mexicana promastigotes expressing T. brucei aquaporins; type: cell-based; conditions: for Sensitization by expression of TbAQP2: L. mexicana promastigotes expressing TbAQP2 vs empty-vector control
Experimental: as §1
TbAQP2 and TbAQP3 were amplified from genomic DNA by PCR using Phusion polymerase (Thermo Scientific) and subcloned into the pNUS vector for expression in Leishmania.[49] The construct was verified by sequencing before transfection into L. mexicana promastigotes using an Amaxa Nucleofector (program U-33).

TbAQP2 [5] = biological target: T1, TbAQP2 (Trypanosoma brucei brucei, UniProt Q6ZXT3); assay: cell-based
T1 sequence (Q6ZXT3 whole entry): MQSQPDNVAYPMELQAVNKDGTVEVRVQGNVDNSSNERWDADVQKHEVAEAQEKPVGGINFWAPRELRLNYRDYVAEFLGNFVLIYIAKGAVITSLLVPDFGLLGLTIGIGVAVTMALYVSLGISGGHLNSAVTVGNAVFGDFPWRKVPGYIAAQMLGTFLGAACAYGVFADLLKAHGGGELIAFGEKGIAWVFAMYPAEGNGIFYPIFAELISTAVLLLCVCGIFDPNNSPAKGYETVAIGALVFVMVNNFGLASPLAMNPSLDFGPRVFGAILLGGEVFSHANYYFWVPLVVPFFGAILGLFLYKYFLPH

TbAQP2 [6] = biological target: T1, TbAQP2
LAPT1 [7] = conditions: 1 μM [3H]pentamidine; for Km: read-out: LAPT1 Km
T. b. brucei 247MR = tested on: T. b. brucei 247MR; design: method as in PMID 9225768; conditions: cited from earlier work
LAPT1 [8] = conditions: cited from earlier work
TbAQP3 = biological target: T2, TbAQP3 (Trypanosoma brucei brucei, UniProt Q6ZXT2); type: cell-based, T. b. brucei; conditions: 100 nM [3H]pentamidine over 5 min; TbAQP3-transfected promastigotes
T2 construct: expressed in transfected cells; host or cells: Leishmania mexicana promastigotes, pNUS vector
T2 sequence (Q6ZXT2 whole entry): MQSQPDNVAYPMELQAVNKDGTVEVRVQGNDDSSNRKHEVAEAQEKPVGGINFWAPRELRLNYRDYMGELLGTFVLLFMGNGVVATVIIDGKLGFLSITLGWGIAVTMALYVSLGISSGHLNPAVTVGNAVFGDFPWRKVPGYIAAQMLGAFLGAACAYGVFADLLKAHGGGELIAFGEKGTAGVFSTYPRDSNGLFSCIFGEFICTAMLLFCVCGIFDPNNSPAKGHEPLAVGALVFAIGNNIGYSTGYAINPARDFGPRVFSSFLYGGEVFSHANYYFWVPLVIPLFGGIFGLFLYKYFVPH

T. b. brucei = conditions: cited from earlier work
HAPT1 [9] = biological target: T3, HAPT1 (Trypanosoma brucei brucei, UniProt Q6ZXT3); assay: cell-based; type: cell-based, T. b. brucei
T3 sequence (Q6ZXT3 whole entry): as the sequence (Q6ZXT3 whole entry) above

T. b. rhodesiense = conditions: cited from earlier work; note: key: highly sensitive (+++); ++: indicated on a relative scale; +: indicated on a relative scale; +/−: indicated on a relative scale; −: indicated on a relative scale; highly resistant to pentamidine or melaminophenyl arsenicals (−−−)
HAPT1 [10] = biological target: T3, HAPT1; assay: cell-based; type: cell-based, T. b. gambiense
HAPT1 [11] = biological target: T3, HAPT1; assay: [3H]pentamidine high-affinity transport, bloodstream forms
T. b. gambiense = conditions: cited from earlier work
[12] = tested on: bloodstream-form T. b. brucei; conditions: cited from earlier work
LAPT1 [13] = assay: [3H]pentamidine low-affinity transport, bloodstream forms; type: cell-based, T. b. brucei; conditions: for Km: read-out: LAPT1 pentamidine Km
LAPT1 [14] = conditions: 1 μM [3H]pentamidine; for Km: read-out: LAPT1 Km; remark: listed apart in the source
HAPT1 [15] = biological target: T3, HAPT1; design: endogenous in cells; host or cells: bloodstream-form T. b. brucei Lister 427 derivatives (s427 WT, TbAT1-KO, 2T1: endogenous AQP2; B48/AQP2: wild-type TbAQP2 from vector pHDK21, derived from pHD1336); conditions: cited from earlier work
[16] = tested on: N=C(N)c1ccc(OCCCCCOc2ccc(C(=N)N)cc2)cc1; assay: cells, lysate or membranes; conditions: pH 7.3
[17] = B48 + TbAQP2 vs B48 empty vector (Figure 1)
[18] = P1000 + TbAQP2 vs P1000 empty vector (Figure 1)
Throughout, for susceptibility: key: highly sensitive (+++); ++: indicated on a relative scale; +: indicated on a relative scale; +/−: indicated on a relative scale; −: indicated on a relative scale; highly resistant to pentamidine or melaminophenyl arsenicals (−−−).

C[C@H]1O[C@@H](n2cnc3c(N)ncnc32)[C@H](O)[C@@H]1O [5′-deoxyadenosine]
Increase in susceptibility on expression of TbAT1 ([1]; P < 0.001): > 20 fold

Cl.Cl.NCCS[As](SCCN)c1ccc(Nc2nc(N)nc(N)n2)cc1 [Cymelarsan]
Reversal of resistance on expression of TbAQP2 [1, 17]: 16.7 fold
Reversal of resistance on expression of TbAQP2 [1, 18]: 15.0 fold
Difference in susceptibility ([1]; aqp2 null vs aqp2 null expressing WT AQP2, P < 0.001): 4.1 fold
Difference in susceptibility ([1]; aqp2 null vs aqp2 null expressing chAQP2/3, P < 0.05): 1.4 fold
Resistance relative to parental line [2]: 83 fold
Resistance relative to parental line [3]: 755 fold

C[C@@H]1[C@H](O)[C@@H](C)/C=C/C=C/C=C/C=C/C=C/C=C/C=C/[C@H](O[C@@H]2O[C@H](C)[C@@H](O)[C@H](N)[C@@H]2O)C[C@@H]2O[C@](O)(C[C@@H](O)C[C@@H](O)[C@H](O)CC[C@@H](O)C[C@@H](O)CC(=O)O[C@H]1C)C[C@H](O)[C@H]2C(=O)O [amphotericin B]
Sensitization by expression of TbAQP2 [4]: no statistically significant effect

Nc1ncnc2c1ncn2[C@@H]1O[C@H](CO)C[C@H]1O [cordycepin, 3′-deoxyadenosine]
Increase in susceptibility on expression of TbAT1 ([1]; P < 0.001): > 20 fold

N=C(N)c1ccc(/N=N/Nc2ccc(C(=N)N)cc2)cc1 [diminazene]
Reversal of resistance on expression of TbAQP2 [1, 17]: not affected
Reversal of resistance on expression of TbAQP2 [1, 18]: not affected
Ki (TbAQP2 [5]): 100 ± 21 µM
Sensitization by expression of TbAQP2 [4]: no statistically significant effect

N=C(N)c1ccc(OCCCCCOc2ccc(C(=N)N)cc2)cc1 [pentamidine]
Rate of [3H]pentamidine uptake (TbAQP2 [6]; 50 nM [3H]pentamidine in the presence of 1 mM unlabelled pentamidine): 0.00026 ± 1.8 × 10^−6 pmol/10^7 cells/s
Rate of [3H]pentamidine uptake (TbAQP2 [6]; 50 nM [3H]pentamidine, over 15 s): 0.032 ± 0.002 pmol/10^7 cells/s
Increase of [3H]pentamidine uptake (TbAQP2 [6]; 100 nM [3H]pentamidine over 5 min, TbAQP2-expressing promastigotes vs control): ~15 fold
Reversal of resistance on expression of TbAQP2 [1, 17]: 50 fold
Reversal of resistance on expression of TbAQP2 [1, 18]: 240 fold
EC50 [1]: 158 ± 2 nM
EC50 ([1]; aqp2/aqp3 null expressing AQP3^sf2, P < 0.02): 131 ± 3 nM
LAPT1 Vmax (LAPT1 [7]; STIB 386MR procyclics): 1.2 ± 0.4 pmol/10^7 cells/s
LAPT1 Vmax (LAPT1 [7]; STIB 386WT procyclics): 0.70 ± 0.15 pmol/10^7 cells/s
Km (LAPT1 [7]; STIB 386MR procyclics): 51 ± 2 µM
Km (LAPT1 [7]; STIB 386WT procyclics): 46 ± 9 µM
Pentamidine resistance in vivo relative to parental line (T. b. brucei 247MR): > 50 fold
Km (LAPT1 [8]; read-out: LAPT1 pentamidine Km, B48 bloodstream forms, ref Bridges et al. 16): 56 ± 7 µM
Km (LAPT1 [8]; read-out: LAPT1 pentamidine Km, TbAT1-KO bloodstream forms, ref Matovu et al. 14): 50 ± 17 µM
Km (LAPT1 [8]; read-out: LAPT1 pentamidine Km, WT s427 bloodstream forms, ref De Koning 17): 56 ± 8 µM
Km (LAPT1 [8]; read-out: published pentamidine Km for LAPT1): 56.2 ± 8.3 µM
Uptake of [3H]pentamidine compared with control (TbAQP3): not significantly different
Susceptibility (T. b. brucei): +++ and +/− and ++ and −
HAPT1 Vmax (HAPT1 [9]; STIB 247WT procyclics, 25 nM [3H]pentamidine): 0.008 ± 0.002 pmol/10^7 cells/s
Susceptibility (T. b. rhodesiense): +++ and −
HAPT1 Vmax (HAPT1 [10]; STIB 386WT procyclics, 25 nM [3H]pentamidine): 0.007 ± 0.002 pmol/10^7 cells/s
Resistance relative to parental line [2]: 90 fold
Sensitization by expression of TbAQP2 [4]: 40 fold
Sensitization by expression of TbAQP3 ([4]; L. mexicana promastigotes expressing TbAQP3, two independent clones): 1.5–2.5 fold
IC50 (HAPT1 [11]): 60 ± 17 nM
Reduction of [3H]pentamidine uptake (HAPT1 [11]; 50 nM [3H]pentamidine, B48 compared with TbAT1-KO control): 15.5 fold
Increase of [3H]pentamidine uptake on expression of TbAQP2 (HAPT1 [11]; 50 nM pentamidine, B48 + TbAQP2 vs B48): 27.7 fold
Susceptibility (T. b. gambiense): +++ and +/−
Loss of sensitivity on homozygous deletion of TbAT1 [12]: 2.5–3 fold
Increase of [3H]pentamidine uptake on expression of TbAQP2 (LAPT1 [13]; 1 μM pentamidine, B48 + TbAQP2 vs B48): 2.5 fold
Uptake of [3H]pentamidine compared with control (LAPT1 [13]; 1 μM pentamidine, B48 compared with TbAT1-KO): not significantly different
IC50 (LAPT1 [13]; read-out: IC50, inhibition of [3H]pentamidine uptake, low-affinity phase, 2T1 control cells, 30 nM [3H]pentamidine, 1 mM adenosine, n = 3): 29.9 ± 4.3 µM
IC50 (LAPT1 [13]; read-out: IC50, inhibition of [3H]pentamidine uptake, aqp2 null cells, 30 nM [3H]pentamidine, 1 mM adenosine): 33.4 ± 9.5 µM
Km (LAPT1 [13]; B48/AQP2 bloodstream forms): 66 ± 1 µM
Km (LAPT1 [13]; P1000 bloodstream forms): 99 ± 24 µM
Resistance relative to parental line [3]: 74 fold
LAPT1 Vmax (LAPT1 [14]; STIB 247MR procyclics): 0.41 ± 0.10 pmol/10^7 cells/s
LAPT1 Vmax (LAPT1 [14]; STIB 247WT procyclics): 0.65 ± 0.17 pmol/10^7 cells/s
Km (LAPT1 [14]; STIB 247MR procyclics): 56 ± 19 µM
Km (LAPT1 [14]; STIB 247WT procyclics): 49 ± 19 µM

N=C(N)c1ccc(OCCCOc2ccc(C(=N)N)cc2)cc1 [propamidine]
Ki (TbAQP2 [5]): 8.1 ± 0.8 µM
Ki (HAPT1 [9]): 14 ± 2 µM
Ki (HAPT1 [10]): 22 ± 6 µM
Ki (HAPT1 [15]; TbAT1-KO bloodstream forms, ref Matovu et al. 14): 13 ± 3 µM
Ki (HAPT1 [15]; WT s427 bloodstream forms, ref De Koning 17): 4.6 ± 0.7 µM
Ki (HAPT1 [11]): 15.2 ± 1.6 µM
IC50, inhibition of [3H]pentamidine uptake (LAPT1 [13]; aqp2 null cells, 30 nM [3H]pentamidine, 1 mM adenosine): insensitive

Nc1ncnc2c1ccn2[C@@H]1O[C@H](CO)[C@@H](O)[C@H]1O [tubercidin, 7-deazaadenosine]
Increase in susceptibility on expression of TbAT1 ([1]; P < 0.001): > 20 fold
EC50 ([1]; s427 WT, read-out: EC50): 230 ± 30 nM
EC50 ([1]; tbat1−/− strain, read-out: EC50): 2650 ± 230 nM
Decrease in susceptibility ([1]; tbat1−/− strain relative to s427 WT): 10 fold

HAPT1 (Trypanosoma brucei brucei)
Km ([16]; other: B48/AQP2 bloodstream forms): 0.046 ± 0.014 µM

TbAQP2 (Trypanosoma brucei brucei)
Km ([16]; other: L. mexicana/TbAQP2 promastigotes): 0.055 ± 0.004 µM
